Measured values: patent publication US12622866B2, “Topical compositions and methods” (MARY KAY INC., priority 2018, dated 2026)

Columns and labels:
[1] = system: B16-F1 melanocytes; assay: B16 pigmentation assay (melanogenesis); assay type: cell-based, mouse; details: ingredient 1%, 6 days, melanin secretion by absorbance at 405 nm
Description: Melanogenesis is the process by which melanocytes produce melanin, a naturally produced pigment that imparts color to skin, hair, and eyes. Inhibiting melanogenesis is beneficial to prevent skin darkening and lighten dark spots associated with aging. This bioassay utilizes B16-F1 melanocytes (ATCC), an immortalized mouse melanoma cell line, to analyze the effect of compounds on melanogenesis. The endpoint of this assay is a spectrophotometric measurement of melanin production and cellular viability. B16-F1 melanocytes, were cultivated in standard DMEM growth medium with 10% fetal bovine serum (Mediatech) at 37° C. in 10% CO2 and then treated with the ingredients in the amounts indicated in Table 2 for 6 days. Following incubation, melanin secretion was measured by absorbance at 405 nm and cellular viability is quantified.

[2] = system: mushroom tyrosinase; assay: Mushroom tyrosinase activity assay; assay type: biochemical; details: ingredient 1%, substrate L-Dopa, read at 490 nm
Description: In mammalian cells, tyrosinase catalyzes two steps in the multi-step biosynthesis of melanin pigments from tyrosine (and from the polymerization of dopachrome). Tyrosinase is localized in melanocytes and produces melanin (aromatic quinone compounds) that imparts color to skin, hair, and eyes. Purified mushroom tyrosinase (Sigma) was incubated with its substrate L-Dopa (Fisher) in the presence of each of the ingredients in the amounts indicated in Table 3. Pigment formation was evaluated by colorimetric plate reading at 490 nm. The percent inhibition of mushroom tyrosinase activity was calculated compared to non-treated controls to determine the ability of tested ingredients to inhibit the activity of purified enzyme.

[3] = Antioxidant (AO) assay, total anti-oxidant capacity; assay type: biochemical; details: ingredient 1%, Cayman Anti-Oxidant capacity kit #709001
Description: The assay relies on the ability of antioxidants in the sample to inhibit the oxidation of ABTS® (2,2′-azino-di-[3-ethylbenzthiazoline sulphonate]) to ABTS®·+by metmyoglobin. The antioxidant system of living organisms includes enzymes such as superoxide dismutase, catalase, and glutathione peroxidase; macromolecules such as albumin, ceruloplasmin, and ferritin; and an array of small molecules, including ascorbic acid, α-tocopherol, β-carotene, reduced glutathione, uric acid, and bilirubin. The sum of endogenous and food-derived antioxidants represents the total antioxidant activity of the extracellular fluid. Cooperation of all the different antioxidants provides greater protection against attack by reactive oxygen or nitrogen radicals, than any single compound alone. Thus, the overall antioxidant capacity may give more relevant biological information compared to that obtained by the measurement of individual components, as it considers the cumulative effect of all antioxidants present in plasma and body fluids. The capacity of the antioxidants in the sample to prevent ABTS oxidation was compared with that of Trolox, a water-soluble tocopherol analogue, and was quantified as molar Trolox equivalents. […]

[4] = system: Type I procollagen peptide secretion by human adult epidermal fibroblasts; assay: Collagen stimulation assay; assay type: cell-based; details: ingredient 1%, 3 days, ELISA
Description: Collagen is an extracellular matrix protein critical for skin structure. Increased synthesis of collagen helps improve skin firmness and elasticity. This bioassay was used to examine effects on the production of procollagen peptide (a precursor to collagen) by human epidermal fibroblasts. The endpoint of this assay was a spectrophotometric measurement that reflects the presence of procollagen peptide and cellular viability. The assay employed the quantitative sandwich enzyme immunoassay technique whereby a monoclonal antibody specific for procollagen peptide was pre-coated onto a microplate. Standards and samples were pipetted into the wells and any procollagen peptide present was bound by the immobilized antibody. […] Color development was stopped and the intensity of the color at 450 nm was measured using a microplate reader.
For generation of samples and controls, subconfluent normal human adult epidermal fibroblasts (Cascade Biologics) were cultivated in standard DMEM growth medium with 10% fetal bovine serum (Mediatech) at 37° C. in 10% CO2. […] Following incubation, cell culture medium was collected and the amount of Type I procollagen peptide secretion was quantified using the sandwich enzyme linked immuno-sorbant assay (ELISA) from Takara (#MK101) as explained above. […]

[5] = system: lysyl oxidase expression in skin cells; assay: Lysyl oxidase assay; assay type: cell-based; details: ingredient 1%
Description: A lysyl oxidase assay was performed on skin cells (e.g., epidermal keratinocytes, fibroblasts, and/or dermal endothelial cells) to determine the ability of the ingredient listed in Table 8 to stimulate expression of lysyl oxidase in skin. Lysyl oxidase can catalyze crosslinking of elastin and collagens, thereby providing for a more structurally rigid matrix for skin. By increasing expression of lysyl oxidase, increased cross-linking of elastin and collagens can occur, which can be beneficial in reducing the appearance of fine lines, wrinkles, sagging skin, and/or non-elastic skin.

[6] = system: TNF-α production by human epidermal keratinocytes; assay: Tumor necrosis factor alpha (TNF-α) assay; assay type: cell-based; details: ingredient 1%, PMA 10 ng/ml, 6 hours, ELISA
Description: The prototype ligand of the TNF superfamily, TNF-α, is a pleiotropic cytokine that plays a central role in inflammation. Increase in its expression is associated with an up regulation in pro-inflammatory activity. This bioassay was used to analyze the effect of the ingredients in the amounts listed in Table 9 on the production of TNF-α by human epidermal keratinocytes. The endpoint of this assay was a spectrophotometric measurement that reflects the presence of TNF-α and cellular viability. The assay employs the quantitative sandwich enzyme immunoassay technique whereby a monoclonal antibody specific for TNF-α has been pre-coated onto a microplate. Standards and samples were pipetted into the wells and any TNF-α present is bound by the immobilized antibody. After washing away any unbound substances, an enzyme-linked polyclonal antibody specific for TNF-α is added to the wells. Following a wash to remove any unbound antibody-enzyme reagent, a substrate solution is added to the wells and color develops in proportion to the amount of TNF-α bound in the initial step using a microplate reader for detection at 450 nm. The color development was stopped and the intensity of the color was measured. […] Following incubation, cell culture medium was collected and the amount of TNF-a secretion quantified using a sandwich enzyme linked immuno-sorbant assay (ELISA) from R&D Systems (#DTA00C).

| Compound | % of Inhibition (B16 melanogenesis) [1] | % of Inhibition (Mushroom Tyrosinase Inhibition) [2] | % of Inhibition (Anti-oxidant capacity) [3] | % of expression (Collagen 1 Expression) [4] | % of expression (Lysyl Oxidase) [5] | % of expression (TNF-α Expression) [6] |
| --- | --- | --- | --- | --- | --- | --- |
| NC(=O)c1cccnc1 [Niacinamide] | 30% | – | – | – | – | – |
| Sodium ascorbyl phosphate [Stay C 50] | – | 26% | 97% | 36% | 500% | 85% |
